Test results published in patent US5202315A, “Cephalosporin compounds” (Lucky, Ltd., priority 1989, dated 1993).
Converted amounts (≈) assume the structure as drawn. Read-outs that look alike come from different tables or passages of the source.

Tests used:
[1] = test system: Staphylococcus aureus methicillin susceptible; assay: Antibacterial activity against clinically isolated strains, MIC; format: cell-based; conditions: methicillin susceptible, 42 clinical isolates, broth microdilution test; for MIC90: read-out: MIC 90%
Pseudomonas = assay: Antibacterial activity; format: cell-based; conditions: statement in words
Escherichia coli = assay: Antibacterial activity against clinically isolated strains, MIC; format: cell-based; conditions: 38 clinical isolates, broth microdilution test
Klebsiella pneumoniae = assay: as above; format: cell-based; conditions: 10 clinical isolates, broth microdilution test; for MIC90: read-out: MIC 90%
[2] = In-vivo absorbency (plasma concentrations & pharmacokinetic parameters); set-up: species or system SD rat (male); conditions: plasma, SD male rat, iv 20 mg/kg; for concentration at 1 h: 60 min; for concentration at 1 h / concentration at 2 h: read-out: Plasma Conc.; for concentration at 2 h: 120 min; for AUC / half-life: two compartment model; for half-life: rat, iv, 20 mg/kg
Description: The blood samples from the femoral vein of the rats were taken every hour after administration, and analyzed by bio-assay(agar well method).
Tested animal: SD male Rat (220~340 g)

[3] = test system: Streptococcus faecalis ATCC 29212; assay: Antibacterial activity, MIC; format: cell-based; conditions: Enterococcus faecalis, ATCC29212; ATCC 29212; agar two-fold dilution, 37° C., 20 hours; read-out: MIC
How it was run: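 Values reflect agar dilution testing: Mueller-Hinton medium, two-fold compound series, 2 μl inoculum of 10^7 CFU/ml, 20 h incubation at 37 °C.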

Row | SMILES | MIC50 [1] [µg/mL] | MIC90 [1] [µg/mL] | antibacterial activities, especially against Pseudomonas (Pseudomonas) | MIC50 (Escherichia coli) [µg/mL] | MIC90 (Escherichia coli) [µg/mL] | MIC50 (Klebsiella pneumoniae) [µg/mL] | MIC90 (Klebsiella pneumoniae) [µg/mL] | concentration at 1 h [2] [ng/mL] | concentration at 2 h [2] [ng/mL] | AUC [2] [ng·h/mL] | half-life ([2]; read-out: T1/2 (α)) [min] | half-life ([2]; read-out: T1/2 (β)) [min] | MIC [3] [µg/mL]
1 | C[n+]1c(N)cc(N)nc1SCC1=C(C(=O)[O-])N2C(=O)C(NC(=O)/C(=N\OC(C)(C)C(=O)O)c3csc(N)n3)[C@H]2SC1 (some centres unmarked) [Compound I-1, 7-[(Z)-2-(2-aminothiazol-4-yl)-2-(2-carboxyprop-2-oxyimino)acetamido]-3-(4,6-diamino-1-methylpyrimidinium-2-yl) thiomethyl-3-cephem-4-carboxylate] | 2 (≈ 3.21 µM) | 2 (≈ 3.21 µM) | excellent | 0.063 (≈ 0.101 µM) | 0.13 (≈ 0.208 µM) | 0.063 (≈ 0.101 µM) | 0.13 (≈ 0.208 µM) | 7700 | 1800 | 35300 | 3 | 26 | –
2 | CC[n+]1c(N)cc(N)nc1SCC1=C(C(=O)[O-])N2C(=O)C(NC(=O)/C(=N\OC(C)(C)C(=O)O)c3csc(N)n3)C2SC1 (centres unmarked) [Compound I-2] | 2 (≈ 3.14 µM) | 2 (≈ 3.14 µM) | – | 0.063 (≈ 0.0988 µM) | 0.13 (≈ 0.204 µM) | 0.13 (≈ 0.204 µM) | 0.13 (≈ 0.204 µM) | 2600 | 400 | 11400 | 2 | 23 | –
3 | CC(O/N=C(\C(=O)NC1C(=O)N2C(C(=O)[O-])=C(CSc3nc(N)cc(N)[n+]3C)CSC12)c1csc(N)n1)C(=O)O (centres unmarked) [Compound I-4] | 4 (≈ 6.56 µM) | 4 (≈ 6.56 µM) | – | 0.031 (≈ 0.0508 µM) | 0.063 (≈ 0.103 µM) | 0.031 (≈ 0.0508 µM) | 0.13 (≈ 0.213 µM) | 2600 | 400 | 18600 | 2 | 26 | –
4 | CC[n+]1c(N)cc(N)nc1SCC1=C(C(=O)[O-])N2C(=O)C(NC(=O)/C(=N\OC(C)C(=O)O)c3csc(N)n3)C2SC1 (centres unmarked) [Compound I-5] | 4 (≈ 6.41 µM) | 4 (≈ 6.41 µM) | – | 0.063 (≈ 0.101 µM) | 0.13 (≈ 0.208 µM) | 0.063 (≈ 0.101 µM) | 0.25 (≈ 0.401 µM) | 9700 | 3000 | 39000 | 5 | 36 | –
5 | C[n+]1c(N)cc(N)nc1SCC1=C(C(=O)[O-])N2C(=O)C(NC(=O)/C(=N\OCC(=O)O)c3csc(N)n3)C2SC1 (centres unmarked) [Compound I-7] | 4 (≈ 6.72 µM) | 4 (≈ 6.72 µM) | – | 0.016 (≈ 0.0269 µM) | 0.063 (≈ 0.106 µM) | 0.016 (≈ 0.0269 µM) | 0.031 (≈ 0.052 µM) | 8100 | 1900 | 35700 | 2 | 26 | > 128
6 | CCO/N=C(\C(=O)NC1C(=O)N2C(C(=O)[O-])=C(CSc3nc(N)cc(N)[n+]3N)CSC12)c1csc(N)n1 (centres unmarked) [Compound I-16] | 0.25 (≈ 0.441 µM) | 0.25 (≈ 0.441 µM) | – | 0.13 (≈ 0.229 µM) | 0.25 (≈ 0.441 µM) | 0.13 (≈ 0.229 µM) | 0.13 (≈ 0.229 µM) | 8800 | 1900 | 38400 | 4 | 24 | 32 (≈ 56.5 µM)
7 | Cc1c(N)nc(SCC2=C(C(=O)[O-])N3C(=O)C(NC(=O)/C(=N\OC(C)(C)C(=O)O)c4csc(N)n4)C3SC2)[n+](C)c1N (centres unmarked) [Compound I-30] | 2 (≈ 3.14 µM) | 4 (≈ 6.27 µM) | – | 0.13 (≈ 0.204 µM) | 0.25 (≈ 0.392 µM) | 0.13 (≈ 0.204 µM) | 0.25 (≈ 0.392 µM) | 9600 | 2700 | 41800 | 4 | 30 | –
8 | CCC[n+]1c(N)cc(N)nc1SCC1=C(C(=O)[O-])N2C(=O)C(NC(=O)/C(=N\OC(C)C(=O)O)c3csc(N)n3)C2SC1 (centres unmarked) [Compound I-45] | 2 (≈ 3.14 µM) | 2 (≈ 3.14 µM) | – | 0.13 (≈ 0.204 µM) | 0.13 (≈ 0.204 µM) | 0.13 (≈ 0.204 µM) | 0.13 (≈ 0.204 µM) | 11000 | 3600 | 42900 | 4 | 38 | > 128
